Assay results reported in patent US6348317B1, “Fluorescent and DNA cleavage properties of peptide/dye conjugates” (The Arizona Board of Regents, priority 1999, dated 2002).

Biological target: fluorescein labeled GRE2 sequence dsDNA (F-GRE2)
Assay: Total fluorescence quenching (energy transfer) of fluorescein labeled DNA
Format: binding
Procedure: Fluorescence Measurements. Steady state fluorescence anisotropy measurements were carried out in 20 mM Tris (pH 7.9), 30 mM NaCl, 20 mM KCl, 1 mM MgCl2, and 5% glycerol. […] DNA samples used were either the non-labeled sequences shown in FIG. 2 or a fluorescein labeled duplex with a sequence matching GRE2 (FIG. 2).
For fluorescein labeled DNA measurements, the excitation wavelength was 491 nm and the emission was recorded at 521 nm with a 1.0 nm slit width. Titrations were performed holding the concentration of fluorescein-labeled DNA constant and increasing the concentration of TO, ZF or TO-ZF as indicated. To correct for the small amount of background fluorescence from TO in these measurements, control experiments were performed in parallel using DNA that was not fluorescein labeled, but was otherwise identical to the labeled DNA fragments. The thiazole orange fluorescence intensity measured in the control experiments was subtracted from the total fluorescence intensity for each data point. Under the excitation conditions of these measurements, the contribution to fluorescence by TO at 521 nm was less than 5% of the maximum fluorescence signal observed in the experiment. Even at the point in the titration where the maximum quenching of fluorescein fluorescence was observed (the point of lowest total fluorescence in the measurement), less than half of the fluorescence was due to TO, and this could accurately be removed by subtraction of the control value. Each point is an average of 60 measurements, and each titration was performed independently three times.
Total fluorescence data were collected in parallel to the anisotropy measurements and were calculated from raw data as the fluorescence intensity in the vertical plane plus two times the fluorescence intensity of the horizontal plane, (TF=Ivv+2Ivh). These values were used to determine the percent of the maximum fluorescence for each point along the titration and fit to equation 2. [formula] […]
Fluorescence changes upon binding of TO, ZF and TO-ZF to GRE containing duplex DNA. Equilibrium binding of the non-labeled zinc finger (ZF), unconjugated thiazole orange (TO) and thiazole orange-zinc finger conjugate (TO-ZF) to fluorescein labeled GRE2 sequence dsDNA was measured by both fluorescence anisotropy and total fluorescence. […] For fluorescein fluorescence, excitation was at 491 nm and emission was detected at 521 nm. […] Changes in the steady-state anisotropy of the fluorescein fluorescence from the labeled GRE sequence containing DNA (F-GRE2) can arise from two sources. […] By comparison, the amino acid zinc finger Xfin-31 was determined to have a dissociation constant of approximately 1 μM, M. S. Lee, et al., FEBS 279:289-294 (1991), whereas, the 66 amino acid zinc finger from GATA-1 has a dissociation constant of 10 nM. […]

Kd (1 nM F-GRE2, read-out: dissociation constant from quenching curve, two-state binding model): 14 nM
Substance: TO-ZF: 29 amino acid single zinc finger from residues 438-465 of glucocorticoid receptor, thiazole orange coupled to a lysine ε-amine
change in total fluorescein fluorescence over the titration (excitation 491 nm, emission 521 nm): large decreases in steady state fluorescence
